In patent publication US20130023563A1, “AMIDINOANILINE DERIVATIVE” (AJINOMOTO CO., INC., priority 2010, published 2013):
Counter-ions that a name gives are not always drawn.

Tests used:
Format in all cases: biochemical
human plasma [1] = assay: Anti-blood coagulant activity, aPTT method, Sysmex CA-1500 (Experimental Example 3-1); conditions: negative logarithmic value of the concentration that prolongs aPTT of the control 2 times
Description: Experimental Example 3-1 Measurement of Anti-Blood Coagulant Activity
Examples 1, 8, 9, 11, 13, 16-19 and 22 were measured according to the following method.
(§1) An aPTT measurement method using totally automatic blood coagulation time measuring apparatus Sysmex CA-1500 was used. A 10 mg/ml DDVP solution (DDVP standard product, Wako) (4 μL) and a test compound solution (20 μL) were placed in a sample tube (MS-18, Japan Medical Science), human plasma (standard human plasma for blood coagulation test, GCH-100A, Sysmex) (180 μL) was added and the mixture was used as a test sample. The test sample (50 μL) was incubated at 37° C. for 1 min, data fi APTT (rabbit brain-derived cephalin, DADE Behiring) (50 μL) was added, and the mixture was further incubated at 37° C. for 2 min. To the sample solution was added 0.02M calcium chloride (50 μL), and the time until plasma coagulation was automatically measured.
(§2) As the anti-blood coagulant activity, the negative logarithmic value of the concentration that prolongs aPTT of the control 2 times is shown as paPTT2.

FXa = FXa (Homo sapiens, UniProt P00742); assay: Measurement of inhibitory activity against activated factor X (chromogenic substrate S-2222); conditions: 0.015 U/ml FXa, 0.2 mM S-2222, absorbance 405 nm; read-out: FXa (pIC50) (converted)
Description: Experimental Example 1 Measurement of Inhibitory Activity Against Activated Factor X Activity
(§3) Using a 96-well plate (#3396, Costar), 100 mM Tris-HC1 buffer (130 μL) containing 0.02% Tween 20, 0.1% PEG6000 and 0.2M NaCl was admixed with 0.015 U/ml FXa (10 μL) and a test compound (10 μL) for 10 min and a color developing substrate 0.2 mM S-2222 (50 μL) was added. Using a microplate reader Benchmark Plus (BIO-RAD), the reaction rate was measured from the time course changes at absorbance 405 nm. Using the reaction rate of the control as 100%, the negative logarithmic value of the concentration that can suppress the reaction rate of the control by 50% was taken as the pIC50 value.

[2] = target: activated factor IIa (thrombin) (Homo sapiens, UniProt P00734); assay: Measurement of inhibitory activity against activated factor II (chromogenic substrate S-2238); conditions: 0.125 U/ml thrombin, 0.1 mM S-2238, absorbance 405 nm; read-out: FIIa (pIC50) (converted)
Description: Experimental Example 2 Measurement of Inhibitory Activity Against Activated Factor II (FIIa, Thrombin)
as §3, with “mM Tris-HCl” for “mM Tris-HC1”, “with 0.125” for “with 0.015”, “U/ml activated factor IIa (thrombin)” for “U/ml FXa”, “substrate 0.1” for “substrate 0.2”, “mM S-2238” for “mM S-2222”

human plasma [3] = assay: Anti-blood coagulant activity, aPTT method, Sysmex Cs-2000i (Experimental Example 3-2); conditions: negative logarithmic value of the concentration that prolongs aPTT of the control 2 times
Description: Experimental Example 3-2 Measurement of Anti-Blood Coagulant Activity
as §1, with “Cs-2000i” for “CA-1500”, “(8” for “(4”, “(40” for “(20”, “(360” for “(180”
as §2

FXa, sequence (P00742 235-488 limits assumed): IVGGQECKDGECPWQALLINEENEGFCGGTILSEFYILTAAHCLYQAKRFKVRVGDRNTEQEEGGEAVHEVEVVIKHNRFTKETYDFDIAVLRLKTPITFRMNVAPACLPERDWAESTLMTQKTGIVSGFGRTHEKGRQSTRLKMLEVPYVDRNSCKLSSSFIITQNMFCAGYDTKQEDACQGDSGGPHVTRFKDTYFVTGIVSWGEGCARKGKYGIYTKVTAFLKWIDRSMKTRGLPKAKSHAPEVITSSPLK
FXa, sequence (P00742 41-179 partner limits assumed): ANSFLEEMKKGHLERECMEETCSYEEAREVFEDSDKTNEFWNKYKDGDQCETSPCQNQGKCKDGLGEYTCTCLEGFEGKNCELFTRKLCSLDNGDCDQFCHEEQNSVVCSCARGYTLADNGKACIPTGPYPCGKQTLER

Row | IC50 (FXa) | IC50 [2] | Compound | paPTT2 (human plasma [1]) | paPTT2 (human plasma [3])
1 | 40.7 nM | 53700 nM | CC(=N)N1CCC(Oc2ccc(OC(=O)[C@@H]3CCCCN3c3cccc(C(=N)N)c3)cc2)CC1 [compound of Ex. 17, 4-[(1-ethanimidoylpiperidin-4-yl)oxy]phenyl (2S)-1-{3-[amino(imino)methyl]phenyl}piperidine-2-carboxylate 2 trifluoroacetate] | 6.33 | 
2 | 4.57 nM | 2950 nM | N=C(N)c1cccc(N2CCCC[C@@H]2C(=O)Oc2ccc(C(=N)N3CCCC3)cc2)c1 [compound of Ex. 18, 4-[imino(pyrrolidin-1-yl)methyl]phenyl (2R)-1-{3-[amino(imino)methyl]phenyl}piperidine-2-carboxylate 2 trifluoroacetate] | 6.64 | 
3 | 15.1 nM | 70800 nM | N=C(N)c1cccc(N2CCCC[C@H]2C(=O)Oc2ccc(C(=N)N3CCCC3)cc2)c1 [compound of Ex. 16, 4-[imino(pyrrolidin-1-yl)methyl]phenyl (2S)-1-{3-[amino(imino)methyl]phenyl}piperidine-2-carboxylate 2 trifluoroacetate] | 6.85 | 
4 | 5.13 nM | 1910 nM | N=C(N)c1cccc(N2CCCC[C@@H]2C(=O)Oc2ccc(C(=N)N3CCCC3)cc2F)c1 [compound of Ex. 21, 2-fluoro-4-[imino(pyrrolidin-1-yl)methyl]phenyl (2R)-1-{3-[amino(imino)methyl]phenyl}piperidine-2-carboxylate 2 trifluoroacetate] |  | 6.94
5 | 3.16 nM | 1740 nM | CCC[C@H](C(=O)Oc1ccc(OC2CCN(C(C)=N)CC2)cc1)N(C)c1cccc(C(=N)N)c1 [compound of Ex. 44, 4-[(1-ethanimidoylpiperidin-4-yl)oxy]phenyl N-{3-[amino(imino)methyl]phenyl}-N-methyl-L-norvalinate 2 trifluoroacetate] |  | 6.87
6 | 14.5 nM | 33100 nM | CC(=N)N1CCC(Oc2ccc(OC(=O)[C@H](C)N(C)c3cccc(C(=N)N)c3)cc2)CC1 [compound of Ex. 6, 4-[(1-ethanimidoylpiperidin-4-yl)oxy]phenyl N-{3-[amino(imino)methyl]phenyl}-N-methyl-L-alaninate 2 trifluoroacetate] |  | 6.81
7 | 20 nM | 692 nM | N=C(N)c1cccc(N2CCC[C@@H]2C(=O)Oc2ccc(C(=N)N3CCCC3)cc2)c1 [compound of Ex. 9, 4-[imino(pyrrolidin-1-yl)methyl]phenyl 1-{3-[amino(imino)methyl]phenyl}-D-prolinate 2 trifluoroacetate] | 6.69 | 
8 | 30.9 nM | 14100 nM | CC(C)[C@@H](C(=O)Oc1ccc(C(=N)N2CCCC2)cc1)N(C)c1cccc(C(=N)N)c1 [compound of Ex. 28, 4-[imino(pyrrolidin-1-yl)methyl]phenyl N-{3-[amino(imino)methyl]phenyl}-N-methyl-L-valinate 2 trifluoroacetate] |  | 6.55
9 | 8.13 nM | 22400 nM | CCC(C(=O)Oc1ccc(C(=N)N2CCCC2)cc1)N(C)c1cccc(C(=N)N)c1 (stereo not drawn) [compound of Ex. 47, 4-[imino(pyrrolidin-1-yl)methyl]phenyl 2-[{3-[amino(imino)methyl]phenyl}(methyl)amino]butanoate 2 trifluoroacetate] |  | 6.82
10 | 282 nM | 25700 nM | N=C(N)c1cccc(N2CCC[C@H]2C(=O)Oc2ccc(C(=N)N3CCCC3)cc2)c1 [compound of Ex. 8, 4-[imino(pyrrolidin-1-yl)methyl]phenyl 1-{3-[amino(imino)methyl]phenyl}-L-prolinate 2 trifluoroacetate] | 5.66 | 
11 | 3.02 nM | 2570 nM | CCCC[C@@H](C(=O)Oc1ccc(C(=N)N2CCCC2)cc1C)N(C)c1cccc(C(=N)N)c1 [compound of Ex. 45, 4-[imino(pyrrolidin-1-yl)methyl]-2-methylphenyl N-{3-[amino(imino)methyl]phenyl}-N-methyl-L-norleucinate 2 trifluoroacetate] |  | 6.71
12 | 2.95 nM | 2190 nM | CCCC[C@H](C(=O)Oc1ccc(OC2CCN(C(C)=N)CC2)cc1)N(C)c1cccc(C(=N)N)c1 [compound of Ex. 41, 4-[(1-ethanimidoylpiperidin-4-yl)oxy]phenyl N-{3-[amino(imino)methyl]phenyl}-N-methyl-L-norleucinate 2 trifluoroacetate] |  | 6.53
13 | 7.76 nM | 3390 nM | CC(=N)N1CCC(Oc2ccc(OC(=O)[C@H]3CCCCN3c3cccc(C(=N)N)c3)cc2)CC1 [compound of Ex. 19, 4-[(1-ethanimidoylpiperidin-4-yl)oxy]phenyl (2R)-1-{(3-[amino(imino)methyl]phenyl}piperidine-2-carboxylate 2 trifluoroacetate] | 6.89 | 
14 | 45.7 nM | > 100000 nM | CN(CC(=O)Oc1ccc(C(=N)N2CCCC2)cc1)c1cccc(C(=N)N)c1 [compound of Ex. 1, 4-[imino(pyrrolidin-1-yl)methyl]phenyl N-{3-[amino(imino)methyl]phenyl}-N-methylglycinate 2 trifluoroacetate] | 5.48 | 
15 | 8.13 nM | 13200 nM | CCC(C)[C@@H](C(=O)Oc1ccc(C(=N)N2CCCC2)cc1)N(C)c1cccc(C(=N)N)c1 (stereo partly drawn) [compound of Ex. 33, 4-[imino(pyrrolidin-1-yl)methyl]phenyl N-{3-[amino(imino)methyl]phenyl}-N-methyl-L-isoleucinate 2 trifluoroacetate] |  | 6.80
16 | 4.47 nM | 34700 nM | CC(=N)N1CCC(Oc2ccc(OC(=O)[C@@H](COC(C)(C)C)N(C)c3cccc(C(=N)N)c3)cc2)CC1 [compound of Ex. 40, 4-[(1-ethanimidoylpiperidin-4-yl)oxy]phenyl N-{3-[amino(imino)methyl]phenyl}-O-(tert-butyl)-N-methyl-L-serinate 2 trifluoroacetate] |  | 6.53
17 | 5.5 nM | 3630 nM | N=C(N)c1cccc(N2CCCC[C@@H]2C(=O)Oc2ccc(C(=N)N3CCCC3)nc2)c1 [compound of Ex. 50, 6-[imino(pyrrolidin-1-yl)methyl]pyridin-3-yl (2R)-1-{3-[amino(imino)methyl]phenyl}piperidine-2-carboxylate 2 trifluoroacetate] |  | 6.66
18 | 6.46 nM | 1200 nM | N=C(N)c1cccc(N2CCCC[C@@H]2C(=O)Oc2ccc(C(=N)N3CCCC3)cc2Cl)c1 [compound of Ex. 20, 2-chloro-4-[imino(pyrrolidin-1-yl)methyl]phenyl (2R)-1-{3-[amino(imino)methyl]phenyl}piperidine-2-carboxylate 2 trifluoroacetate] |  | 6.93
19 | 18.2 nM | > 100000 nM | N=C(N)c1cccc(N2CCCC[C@@H]2C(=O)Oc2ccc(C(=N)N3CCCC3)cc2C(=O)O)c1 [compound of Ex. 52, 2-{[((2R)-1-{3-[amino(imino)methyl]phenyl}piperidin-2-yl)carbonyl]oxy}-5-[imino(pyrrolidin-1-yl)methyl]benzoic acid 2 trifluoroacetate] |  | 6.35
